From patent US6716849B1, “Substituted phenylcyclohexane carboxylic acid amides that have an adenosine uptake inhibiting effect” (Bayer Aktiengesellschaft, priority 2001, dated 2004) come the findings set out here.

SMILES strings stand for the structures. In brackets after ≈: the same amount, converted by molar mass.

The target of data set [1] is T1, adenosine transport protein from calf cortex (Bos taurus, UniProt A0ACM8Q8F7).
T1 construct: a membrane preparation of cerebral calf cortex is used, which expresses the relevant adenosine transporter; from tissue; host or cells: cerebral calf cortex, membrane preparation
T1 sequence (A0ACM8Q8F7 1-456): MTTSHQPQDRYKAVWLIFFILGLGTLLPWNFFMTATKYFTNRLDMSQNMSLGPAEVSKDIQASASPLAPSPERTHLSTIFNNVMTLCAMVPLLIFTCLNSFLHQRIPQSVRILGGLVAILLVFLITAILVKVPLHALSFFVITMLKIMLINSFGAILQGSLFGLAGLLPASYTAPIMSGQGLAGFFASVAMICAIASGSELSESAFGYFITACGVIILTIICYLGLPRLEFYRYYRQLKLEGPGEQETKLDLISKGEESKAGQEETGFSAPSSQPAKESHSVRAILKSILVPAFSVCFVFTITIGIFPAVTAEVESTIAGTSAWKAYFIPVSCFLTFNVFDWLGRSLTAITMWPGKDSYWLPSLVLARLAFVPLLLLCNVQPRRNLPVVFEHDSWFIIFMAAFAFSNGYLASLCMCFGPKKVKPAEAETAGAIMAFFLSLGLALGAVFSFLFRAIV
The data set is described as follows: Binding to an adenosine transport protein from calf cortex (displacement of radio-labelled NBTI). Particulars: membrane preparation of cerebral calf cortex, read-out: Ki, inhibition of NBTI-binding. From the text:
2. Binding of the Compounds According to the Invention to an Adenosine Transport Protein From Calf Cortex
The ability of substances to influence the adenosine uptake system is investigated firstly by determining the binding affinity of selected substances to an adenosine transport protein of the CNS and secondly by determining the inhibiting effect of the substances on functional adenosine uptake.
For the binding test, a membrane preparation of cerebral calf cortex is used, which expresses the relevant adenosine transporter. The binding affinity (Ki value) is determined by measuring the displacement of a specific radio-labelled ligand [nitrobenzylthioinosine (NBTI)] from the binding site in question by test substances. The binding site is the binding site on the transport protein which is relevant for the actual transport process. Thus, binding of test substances in this experiment results in a quantifiable release of bound radioactive NBTI which makes determination of the Ki value possible. (J. Neurochemistry 1982,39, 184-191).

Data set [2] in a line: Determination of the solubility (precipitation method, physiological saline, HPLC). Particulars: saline or isotonic, kinetic from dmso stock, 25° C., 24 hours equilibration. Format: physicochemical. On the procedure: 1. Determination of the Solubility
To determine the solubility, a precipitation method was used:
10 mg of the test substance are completely dissolved in 50 μl of DMSO (stock solution). 20 μl of this solution are added to 2000 μl of physiological saline. This solution, in turn, is shaken at 25° C. in a Thermomixer Comfort (from Eppendorf) at 1400 rpm for 24 hours for equilibration.
The precipitated fractions of the test substance are centrifuged off using a Biofuge 15 from Heraeus at 14,000 rpm for 5 min. 1300 μl of the supernatant are once more centrifuged using a Microfuge from Beckmann at 45,000 rpm=125,000 g.
10 μl of this centrifigation supernatant are then diluted with 1000 μl of DMSO, and this solution is measured by HPLC (Hewlett Packard 1090, method, gradient from 100% PBS buffer pH=4 to 10% buffer/90% acetonitrile over a period of 15 min, column: RPI8; PBS buffer pH=4 is a physiological saline solution adjusted to pH=4 using phosphate buffer).
Using a calibration curve, the measured peak area of the HPLC measurement is converted into substance concentration. For the calibration curve, 20 μl of the stock solution are diluted successively with DMSO such that 5 concentrations of 2.5 mg/l to 2000 mg/l result. These solutions are likewise measured by HPLC (see method above), and the peak areas are plotted as a function of the concentrations.

Data set [3] has as its system transient occlusion of the middle cerebral artery (tMCA-O). The data set is described as follows: tMCA-O: transient occlusion of the middle cerebral artery, infarct volume. In kind it is in vivo. Particulars: rat tMCA-O, 0.001 mg/(kg×h) i.v. infusion, begun at start of reperfusion, evaluated after 2 days. The protocol: The neuroprotective activity of the compounds according to the invention was determined in the animal model of transient occlusion of the middle cerebral artery (tMCA-O) and the subdural haematoma (SDH). […] Under general anaesthesia (inhalation anaesthesia with isoflurane), the hairs in the lower anterior neck region are shaved off, in the dorsal position, the head is fixed, the skin is disinfected and the neck area is opened in the middle along the trachea. The right lateral neck muscles are severed bluntly and, together with the skin, pulled to the side (retractors) so that the common carotid artery is clearly visible. The common carotid artery is exposed towards the head up to the point where it branches into the internal carotid artery and the external carotid artery. Using surgical suture material, the common carotid artery (near the thorax) and the external carotid artery are tied off. Using a microclamp; the internal carotid artery is closed temporarily. […] After 2 days of post-operative survival, the volume of the cerebral infarct is determined with the aid of a computer-supported image analysis system using preproduced series of histological brain sections. The size of the infarct is evaluated differentially by cortex, striatum, hippocampus and other brain areas.

For data set [4], the system named is subdural haematoma (SDH). The data set is described as follows: Subdural haematoma in rats (SDH), infarct volume. Format: in vivo. The conditions noted are these: rat SDH, 0.001 mg/(kg×h) i.v. infusion. The protocol:
The neuroprotective activity of the compounds according to the invention was determined in the animal model of transient occlusion of the middle cerebral artery (tMCA-O) and the subdural haematoma (SDH). 5. Subdural Haematoma in Rats (SDH) This rodent model (rat) imitates pathophysiology and cerebral pathology of the blunt skull-brain trauma with subdural hemorrhage and development of a subdural haematoma in man. (Neurosurgery 190, 27,433-439). Under anaesthesia, the animals are unilaterally injected subdurally with their own blood. Under the haematoma, an infarct forms. The substance is administered according to different schedules and via different administration routes (i.v., i.p.). The size of the infarct is determined as described in the model of the transient focal ischaemia in rats (tMCA-O).

With `CN1CCN(c2nc3ccccc3n2Cc2ccc([C@@H]3CCCC[C@H]3C(=O)N[C@H](C(N)=O)c3ccccc3)cc2)CC1` [Example 5, (S)-N-{{(1R,2R)-2-{4-{[2-(4-Methyl-piperazin-1-yl)benzimidazol-1-yl]methyl}-phenyl}-cyclohex-1-yl}carbonyl}-phenylglycinamide], the Ki in data set [1] came out at 2 nM. The same molecule displayed a solubility at 24 h in data set [2] of 16 µg/mL (≈ 28.3 µM). Further, the “reduction of the infarct volume in comparison to control animals” value (“reduction of the infarct volume” below) in data set [3] stood at 91%.

Take `NC(=O)[C@@H](NC(=O)[C@@H]1CCCC[C@H]1c1ccc(Cn2c(CN3CCOCC3)nc3cccnc32)cc1)c1ccccc1` [Example 3]: the Ki in data set [1] worked out at 2 nM. The same molecule registered a solubility at 24 h in data set [2] of 176 µg/mL (≈ 311 µM). Also, the “reduction of the infarct volume” value came out at 30% in data set [4] and 81% in data set [3].

In the case of `Cl.NC(=O)[C@@H](NC(=O)[C@@H]1CCCC[C@H]1c1ccc(Cn2c(CN3CCOCC3)nc3ncccc32)cc1)c1ccccc1` [Example 4, (S)-N-{{(1R,2R)-{4-{2-[2-(Morpholin-4-yl-methyl)-1H-pyrido[2,3-d]imidazol-1-yl]methyl}-phenyl}-cyclohex-1-yl}carbonyl}-phenylglycinamide hydrochloride], the “reduction of the infarct volume” value in data set [4] came out at 45%.

A word on the Ki: it is the equilibrium dissociation constant of an inhibitor or competing ligand from its target. By solubility is commonly meant how much of the substance goes into solution per volume. Low readings indicate little dissolved substance, high ones much dissolved substance.
